Assay results reported in patent publication US7989478B2, “Cinnamoyl compound and use of the same” (Sumitomo Chemical Company, Limited, priority 2003, dated 2011).

These molecules were tested on ability of TGF-β to promote transcription of a Type I collagen gene (assay: Inhibition of the ability of TGF-β to promote transcription of a Type I collagen gene (COL-Luc reporter gene assay)). Conditions: final concentration 1 μM; TGF-β added; normal human fetal skin fibroblast transfected with COL-Luc; 40 hours; read-out: Inhibition percentage.
Format: cell-based
Procedure: 1×10^8 cells of a normal human fetal skin fibroblast (Clontech, catalogue No. CC-2509) were cultured at 37° C. overnight under 5% CO2 atmosphere. After the cultured cells were washed with a sodium phosphate buffer (hereinafter, referred to as PBS) twice, 3 ml of PBS was added thereto and the cells were scraped away the wall of a vessel using a cell scraper (Nalgen, catalogue No. 179693). The scraped cells were collected by centrifugation (1,500 rpm, 4° C., 15 min), and these were suspended in 20 ml of PBS and centrifuged again. To the resulting precipitates were added 11 ml of Solution 2 and 4.8 μl of pronase of DNA Extraction Kit (Stratagene, catalogue No. 200600). After shaken at 60° C. for 1 hour, the resulting mixture was allowed to stand in ice for 10 minutes. Then, 4 ml of Solution 3 of the kit was added to the mixture. After mixed, the mixture was allowed to stand in ice for 5 minutes and then centrifuged (3,000 rpm, 4° C., 15 min) to recover a supernatant. To the recovered supernatant was added 2 μl of RNase per 1 ml of the supernatant and the mixture was allowed to stand at 37° C. for 15 minutes. To the mixture was added 2-fold volume of ethanol. After mixed, a white thread-like substance (genomic DNA) appeared and the substance was recovered. The recovered genomic DNA was washed with 70% ethanol and then air-dried. The air-dried genomic DNA was dissolved in 500 μl of 10 mM Tris-HCl, 1 mM EDTA (pH 8.0) (hereinafter, referred to as TE).
The resulting genomic DNA solution (the amount equivalent to 1 μg of genomic DNA), each 1 μl (10 pmol/μl) of an oligonucleotide consisting of the nucleotide sequence represented by SEQ ID No:1 and an oligonucleotide consisting of the nucleotide sequence represented by SEQ ID No:2, 29 μL of distilled water, 5 μl of the buffer attached to TaKaRa LA Taq (TAKARA SHUZO, catalogue No. RR002A), 5 μL of a Mg^2+ solution, 5 μL of a dNTP mixture and 0.5 μl of TaKaRa LA Taq (TAKARA SHUZO, catalogue No. RR002A) were mixed. After the resulting mixed solution was incubated at 94° C. for 5 minutes, the mixed solution was subjected to 30 cycles, in which one cycle consists of incubation at 94° C. for 1 minute, at 60° C. for 1 minute and then at 72° C. for 1 minute. The mixed solution was electrophoresed on a 2% agarose gel to recover about 0.5 kb of a DNA. The recovered DNA was treated with phenol/chloroform and then precipitated with ethanol to recover the DNA. The resulting DNA was dissolved in ultrapure water. To this solution were added 2.5 μl of NheI and 2.5 μl of HindIII, and then incubated at 37° C. for 3 hours. Then, the solution was electrophoresed on a 2% agarose gel to recover about 3.5 kb of a DNA. The recovered DNA was precipitated with ethanol to recover again the DNA (hereinafter, referred to as the collagen promoter DNA).
On the other hand, the vector pGL3 (Promega, catalogue No. E1751) having the nucleotide sequence encoding firefly luciferase was digested with NheI and HindIII, and then subjected to agarose gel electrophoresis as described above to recover about 5 kb of a DNA. The recovered DNA was precipitated with ethanol to recover the DNA again. To the recovered DNA were added 44 μl of distilled water, 5 μl of Buffer attached to Alkaline Phosphatase (TAKARA SHUZO, catalogue No. 2120A) and 1 μl of Alkaline Phosphatase (TAKARA SHUZO, catalogue No. 2120A). The mixed solution was incubated at 65° C. for 30 minutes. Then, the mixed solution was treated with phenol/chloroform twice, and precipitated with ethanol to recover the DNA (hereinafter referred to as the Luc vector DNA). Then, after about 20 ng of the collagen promoter DNA and about 20 ng of the Luc vector DNA were mixed, the same amount of a DNA Ligation kit Ver2 enzyme solution was added and this was incubated overnight at 16° C. To the mixed solution was added Escherichia coli 5Hdα (TOYOBO, catalogue No. DNA-903), this was allowed to stand in ice for 30 minutes, and then incubated at 42° C. for 45 seconds. […]

| SMILES | inhibition at 1 µM [%] |
| --- | --- |
| N#CCNC(=O)c1cccc(C=CC(=O)c2c(O)c3ccccc3[nH]c2=O)c1 [Compound No. (33e), 4-hydroxy-3-[3-[3-[[(cyanomethyl)amino]carbonyl]phenyl]-1-oxo-2-propenyl]-2(1H)-quinolinone] | ≥ 70 |
| Cc1cc(O)c(C(=O)C=Cc2cccc(OCC#N)c2)c(=O)n1C [Compound No. (11a), 4-hydroxy-3-[3-[3-(cyanomethoxy)phenyl]-1-oxo-2-propenyl]-1,6-dimethyl-2(1H)-pyridinone] | ≥ 70 |
| N#CCOc1ccc(C=CC(=O)c2c(O)c3ccccc3[nH]c2=O)cc1 [Compound No. (13e), 4-hydroxy-3-[3-[4-(cyanomethoxy)phenyl]-1-oxo-2-propenyl]-2(1H)-quinolinone] | ≥ 70 |
| COCC(=O)Nc1ccc(C=CC(=O)c2c(O)cc(C)[nH]c2=O)cc1 [Compound No. (20a), 4-hydroxy-3-[3-[4-(methoxyacetylamino)phenyl]-1-oxo-2-propenyl]-6-methyl-2(1H)-pyridinone] | ≥ 70 |
| COC(=O)COc1cccc(C=CC(=O)c2c(O)cc(C)[nH]c2=O)c1 [Compound No. (7a), 4-hydroxy-3-[3-[3-[(methoxycarbonyl)methoxy]phenyl]-1-oxo-2-propenyl]-6-methyl-2(1H)-pyridinone] | ≥ 70 |
| Cc1cc(O)c(C(=O)C=Cc2ccc(OCC#N)cc2)c(=O)[nH]1 [Compound No. (13a), 4-hydroxy-3-[3-[4-(cyanomethoxy)phenyl]-1-oxo-2-propenyl]-6-methyl-2(1H)-pyridinone] | ≥ 70 |
| COCCNC(=O)Nc1cccc(C=CC(=O)c2c(O)cc(C)[nH]c2=O)c1 [Compound No. (22a), 4-hydroxy-3-[3-[3-[(2-methoxyethyl)aminocarbonylamino]phenyl]-1-oxo-2-propenyl]-6-methyl-2(1H)-pyridinone] | ≥ 70 |
| COCC(=O)Nc1cccc(C=CC(=O)c2c(O)cc(C)[nH]c2=O)c1 [Compound No. (18a), 4-hydroxy-3-[3-[3-(methoxyacetylamino)phenyl]-1-oxo-2-propenyl]-6-methyl-2(1H)-pyridinone] | ≥ 70 |
| COCCOC(=O)Nc1cccc(C=CC(=O)c2c(O)c3ccccc3[nH]c2=O)c1 [Compound No. (21e), 4-hydroxy-3-[3-[3-[(2-methoxyethoxy)carbonylamino]phenyl]-1-oxo-2-propenyl]-2(1H)-quinolinone] | ≥ 70 |
| Cc1cc(O)c(C(=O)C=Cc2cccc(C(=O)NCC#N)c2)c(=O)[nH]1 [Compound No. (35a), 4-hydroxy-3-[3-[3-[(cyanomethyl)aminocarbonyl]phenyl]-1-oxo-2-propenyl]-6-methyl-2(1H)-pyridinone] | ≥ 70 |
| Cn1c(=O)c(C(=O)C=Cc2cccc(OCC#N)c2)c(O)c2ccccc21 [Compound No. (11e), 1-methyl-4-hydroxy-3-[3-[3-(cyanomethoxy)phenyl]-1-oxo-2-propenyl]-2(1H)-quinolinone] | ≥ 70 |
| COC(=O)CNC(=O)c1cccc(C=CC(=O)c2c(O)c3ccccc3[nH]c2=O)c1 [Compound No. (28e), 4-hydroxy-3-[3-[3-[[(methoxycarbonylmethyl)amino]carbonyl]phenyl]-1-oxo-2-propenyl]-2(1H)-quinolinone] | ≥ 70 |
| CS(=O)(=O)NC(=O)c1cccc(C=CC(=O)c2c(O)c3ccccc3[nH]c2=O)c1 [Compound No. (26e), 4-hydroxy-3-[3-[3-[(methanesulfonyl)aminocarbonyl]phenyl]-1-oxo-2-propenyl]-2(1H)-quinolinone] | ≥ 70 |

Each molecule was assayed on mRNA of Type I collagen gene in renal glomerulus (assay: mRNA of Type I collagen gene in renal glomerulus of anti-Thy-1 antibody-administered rats (improvement of chronic renal failure)). Conditions: Example 5; anti-Thy-1 antibody rats; 15 mg/kg/day orally for 7 days in corn oil.
Format: in vivo, rat
Procedure: IgG was purified from an ascites-lyophilized powder (CEDARLANE, lot No. 05122) containing an anti-rat CD90 (Thy1.1) monoclonal antibody using MAbTrap kit (Amersham Biosciences, catalogue No. 17-1128-01).
6 ml of a binding buffer was added to 3 ml of ascites to sufficiently recover it, and this was passed through a 0.22 μm filter. The resulting solution was applied to a pre-bufferized column, and the column was then washed with 10 ml of a binding buffer. Thereafter, the column was eluted with 5 ml of an elution buffer. From washing, each 1 ml was fractionated, and the protein concentration of each fraction was measured using bovine serum albumin as a standard. A single peak was confirmed from an elution pattern, and an IgG fraction was dialyzed against a physiological saline overnight at 4° C. The protein concentration of the resulting anti-Thy-1 antibody (IgG) was calculated.
The present compounds represented by the compound numbers (28a) (hereinafter, referred to as the present compound (28a)), the present compound represented by a compound number (30a) (hereinafter, referred to as the present compound (30a)), the present compound represented by a compound number (33a) (hereinafter, referred to as the present compound (33a)), the present compound represented by a compound number (10e) (hereinafter, referred to as the present compound (10e)), the present compound represented by a compound number (18e) (hereinafter referred to as the present compound (18e)), the present compound represented by a compound number (31e) (hereinafter, referred to as the present compound (31e)) and a corn oil which is a medium were weighed. These were mixed using a mortar and a pestle to prepare a […]. Using four 7-week old male Wistar rats [Nippon Charles River] per group, 60 μg/ml of the anti-Thy-1 antibody (IgG) or a physiological saline was intravenously injected via a tail vein at 5 ml/kg. […] A dose of the present compound was 15 mg/kg/day.
On the next day of final administration, a rat reared as described in the above (2) was slaughtered by collection of whole blood, and kidneys were isolated. A whole RNA was separated from the cortex of the isolated kidney using RNeasy Mini Kit (QIAGEN, catalogue No. 74106). To 5 μl (50 ng) of the separated whole RNA were added 1 μl of 20 μM oligo dT and 4 μl of RNase-free distilled water. After the mixture was incubated at 65° C. for 5 minutes, it was immediately ice-cooled. To 10 μl of the solution were added 4 μl of 5× buffer, 2.4 μl of MgCl2, 1 μl of 10 mM dNTP, 1 μl of RNasin, 1 μl of Improm II and 0.6 μl of RNase-free distilled water (all available from Promega), and a reverse transcription reaction was performed under the condition of at 25° C. for 5 minutes, at 42° C. for 1 hour, and at 70° C. for 15 minutes.
Into 5 μl of the reverse transcription reaction solution were mixed each 2 μl of each 1.25 pmol/μl of primers represented by SEQ ID NOS: 3 and 4, 1.25 μl of a probe (FAM-ctcgccttca tgcgcctgct agc-TAMRA) for detecting DNA of a Type I collagen gene represented by SEQ ID No:5, each 0.25 μl of Rodent GAPDH primers, 0.25 μl of a Rodent GAPDH probe, 12.5 μl of TaqMan Universal PCR Master Mix (all available from Applied Biosystem) and 1.5 μl of sterilized water in a well of Optical 96-Well Reaction Plate (Applied Biosystem, catalogue No. N801-0560). As a standard, in place of 5 μl of the reverse transcription reaction solution, each 5 μl of 500, 250, 125, 62.5, 31.25, 15.625 ng/μl rat renal cortex cDNA which had been prepared in advance was used. Thereafter, using Gene Amp 7900 (Applied Biosystem), PCR was performed under the condition of at 50° C. for 5 minutes, and 40 cycles in which one cycle is at 95° C. for 15 seconds and at 60° C. for 1 minute. […]

| SMILES | ability to improve chronic renal failure |
| --- | --- |
| COCCNC(=O)c1ccc(C=CC(=O)c2c(O)cc(C)[nH]c2=O)cc1 [Compound No. (33a), 4-hydroxy-3-[3-[4-[(2-methoxyethyl)aminocarbonyl]phenyl]-1-oxo-2-propenyl]-6-methyl-2(1H)-pyridinone] | have the ability to improve chronic renal failure |

Same assay, conditions: Table 3; Type I collagen amount/GAPDH amount, renal cortex; anti-Thy-1 antibody +; 15 mg/kg/day orally for 7 days in corn oil; Wistar rats; control group 3.4, normal group 1.9; test results p < 0.05

| SMILES | mRNA of collagen gene |
| --- | --- |
| COCCNC(=O)c1ccc(C=CC(=O)c2c(O)cc(C)[nH]c2=O)cc1 [Compound No. (33a), 4-hydroxy-3-[3-[4-[(2-methoxyethyl)aminocarbonyl]phenyl]-1-oxo-2-propenyl]-6-methyl-2(1H)-pyridinone] | 2.4 |
